# Data taken from ChEMBL document CHEMBL4118095, “Conjugation of Paclitaxel to Hybrid Peptide Carrier and Biological Evaluation in Jurkat and A549 Cancer Cell Lines” (ACS Med Chem Lett, 2017).
# pIC50: −log10 of the molar value.
# Tested on: A549
# Assay: Cytotoxicity against human A549 cells measured after 24 hrs
# Format: functional, cell-based
# Conditions: A549, 24 h
structure (smiles),measurement,value
CC(=O)O[C@H]1C(=O)[C@@]2(C)[C@H]([C@H](OC(=O)c3ccccc3)[C@]3(O)C[C@H](OC(=O)[C@H](O)[C@@H](NC(=O)c4ccccc4)c4ccccc4)C(C)=C1C3(C)C)[C@]1(OC(C)=O)CO[C@@H]1C[C@@H]2O [PACLITAXEL],pIC50,8.39
